Source: patent US11230556B2 (Merck Sharp & Dohme Corp., priority 2016, dated 2022)

Biological target: T1, human M4 muscarinic acetylcholine receptor (Homo sapiens, UniProt P08173)
T1 construct: expressed in transfected cells; host or cells: CHO-K1
T1 sequence (P08173 1-479): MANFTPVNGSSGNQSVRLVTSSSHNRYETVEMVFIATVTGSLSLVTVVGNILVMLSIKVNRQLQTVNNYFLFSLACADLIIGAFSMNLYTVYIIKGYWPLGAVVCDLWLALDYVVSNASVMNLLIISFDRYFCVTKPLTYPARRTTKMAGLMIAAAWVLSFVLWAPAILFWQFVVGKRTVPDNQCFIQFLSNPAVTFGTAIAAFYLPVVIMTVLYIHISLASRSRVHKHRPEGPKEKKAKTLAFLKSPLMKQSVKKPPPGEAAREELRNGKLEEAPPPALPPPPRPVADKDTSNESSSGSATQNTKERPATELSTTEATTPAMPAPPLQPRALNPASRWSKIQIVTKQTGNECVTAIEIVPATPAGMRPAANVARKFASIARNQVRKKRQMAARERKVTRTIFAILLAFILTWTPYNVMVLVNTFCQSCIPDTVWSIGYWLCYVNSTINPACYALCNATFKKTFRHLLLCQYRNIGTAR
Assay: human FLIPR-based M4 PAM assay (CHO-K1 cells with human M4 receptor and Gαqi5, calcium dye fluorescence, acetylcholine at 20% of maximum response)
Assay type: cell-based
Conditions: inflection point (IP) of 4 parameter logistic dose response curve, human M4 receptor + Gαqi5, FLIPR Tetra
Experimental: In a typical experiment the M4 muscarinic acetylcholine receptor modulating activity of the compounds of the present invention was determined in accordance with the following experimental method. CHO-K1 cells stably transfected with human M4 receptor and chimeric G-protein Gαqi5 (Coward P, et al., Analytical Biochemistry, 270:242-248 (1999)) are thawed from liquid N2 storage, resuspended in growth medium, plated in black, clear bottom 384 well plates, and incubated 16-20 hours at 37° C., 5% CO2. On the day of assay, growth medium is removed, the cells are washed 2 times with wash buffer, and cells are incubated in dye loading buffer at 37° C., 5% CO2 for ˜1 hour. Following dye loading the cell plates are placed in a FLIPR Tetra instrument and while monitoring dye fluorescence (excitation […]), 10 uL of test substance at increasing concentrations is added, and fluorescence values are recorded for 4 min. Next, 10 uL of acetylcholine is added (final concentration calculated so as to achieve 20% of the maximum acetycholine response), and the fluorescence reading is continued for 3.5 min. In some cases, a third addition of acetylcholine (final concentration calculated to achieve 70% of the maximal acetylcholine response) is performed. The resulting dose response curves are fit to a 4 parameter logistic equation and the final result is determined as the inflection point (IP) of the curve
CHO-K1 cells stably transfected with human M4 receptor and chimeric G-protein Gαqi5 are thawed from liquid N2 storage, resuspended in growth medium, plated in black, clear bottom 384 well plates, and incubated 16-20 hours at 37° C., 5% CO2.
On the day of assay, growth medium is removed, the cells are washed 2 times with wash buffer, and cells are incubated in dye loading buffer at 37° C., 5% CO2 for ˜1 h. Following dye loading the cell plates are placed in a FLIPR Tetra instrument and while monitoring dye fluorescence ([…]), 10 uL of test substance at increasing concentrations is added, and fluorescence values are recorded for 4 min. Next, 10 uL of acetylcholine is added (final concentration calculated so as to achieve 20% of the maximum acetycholine response), and the fluorescence reading is continued for 3.5 min. In some cases, a third addition of acetylcholine (final concentration calculated to achieve 70% of the maximal acetylcholine response) is performed.

Structure (SMILES)	EC50 [nM]
Cc1cn2c(=O)n(C)nc2nc1N1CCC(Oc2cccc(C#N)c2)CC1 [Example 17, 3-((1-(2,6-dimethyl-3-oxo-2,3-dihydro-[1,2,4]triazolo[4,3-a]pyrimidin-7-yl)piperidin-4-yl)oxy)benzonitrile]	36
Cc1cc2c(nc1N1CCC(Oc3ccccc3)CC1)CN(C(=O)C1CC1)C2 [Example 47, cyclopropyl(3-methyl-2-(4-phenoxypiperidin-1-yl)-5,7-dihydro-6H-pyrrolo[3,4-b]pyridin-6-yl)methanone]	113
Cc1cc2c(=O)[nH]n(C)c2nc1N1CCC(Oc2cccc(C#N)c2)CC1 [Example 26, 3-((1-(1,5-dimethyl-3-oxo-2,3-dihydro-1H-pyrazolo[3,4-b]pyridin-6-yl)piperidin-4-yl)oxy)benzonitrile]	208
COc1ccc(OC2CCN(c3nc4c(cnn4C)cc3C)CC2)cn1 [Example 38, 6-(4-((6-methoxypyridin-3-yl)oxy)piperidin-1-yl)-1,5-dimethyl-1H-pyrazolo[3,4-b]pyridine]	397
Cc1cn2c(=O)n(C)nc2nc1N1CCC(OCC2(C)CC2)CC1 [Example 3, 2,6-Dimethyl-7-(4-((1-methylcyclopropyl)methoxy)piperidin-1-yl)-[1,2,4]triazolo[4,3-a]pyrimidin-3(2H)-one]	79
COc1ccc(OC2CCN(c3nc4c(cc3C)C(=O)OC4(C)C)CC2)cn1 [Example 30, 2-(4-((6-methoxypyridin-3-yl)oxy)piperidin-1-yl)-3,7,7-trimethylfuro[3,4-b]pyridin-5(7H)-one]	856
COc1ccc(OC2CCN(c3nc4cnn(C)c4cc3C)CC2)cn1 [Example 66, 5-(4-((6-methoxypyridin-3-yl)oxy)piperidin-1-yl)-1,6-dimethyl-1H-pyrazolo[4,3-b]pyridine]	1380
Cc1cc2c(=O)[nH][nH]c2nc1N1CCC(Oc2cccc(C#N)c2)CC1 [Example 22, 3-((1-(5-methyl-3-oxo 2,3-dihydro-1H-pyrazolo[3,4-b]pyridin-6-yl)piperidin-4-yl)oxy)benzonitrile]	57
COc1ccc(OC2CCN(c3nc4c(cc3C)CN(C(=O)C3CC(F)(F)C3)C4)CC2)cn1 [Example 49, (3,3-difluorocyclobutyl)(2-(4-((6-methoxypyridin-3-yl)oxy)piperidin-1-yl)-3-methyl-5,7-dihydro-6H-pyrrolo[3,4-b]pyridin-6-yl)methanone]	126
COc1ccc(OC2CCN(c3nc4[nH]c(=O)[nH]c4cc3C)CC2)cn1 [Example 79, 5-(4-((6-Methoxypyridin-3-yl)oxy)piperidin-1-yl)-6-methyl-1,3-dihydro-2H-imidazo[4,5-b]pyridin-2-one]	1170
COc1ccc(OC2CCN(c3nc4nn(CCO)c(=O)n4cc3C)CC2)cn1 [Example 14, 2-(2-hydroxyethyl)-7-(4-((6-methoxypyridin-3-yl)oxy)piperidin-1-yl)-6-methyl-[1,2,4]triazolo[4,3-a]pyrimidin-3(2H)-one]	69
Cc1cc2c(nc1N1CCC(Oc3ccccc3)CC1)COC2=O [Example 31, 3-methyl-2-(4-phenoxypiperidin-1-yl)furo[3,4-b]pyridin-5(7H)-one]	17
COc1ccc(OC2CCN(c3nc4c(cc3C)C(=O)OC4C)CC2)cn1 (racemic) [Example 29B, (R)-2-(4-((6-Methoxypyridin-3-yl)oxy)piperidin-1-yl)-3,7-dimethylfuro[3,4-b]pyridin-5(7H)-one and (S)-2-(4-((6-methoxypyridin-3-yl)oxy)piperidin-1-yl)-3,7-dimethylfuro[3,4-b]pyridin-5(7H)-one]	54
COc1ccc(OC2CCN(c3nc4c(cc3C)CN(C(=O)C3CCCC3)C4)CC2)cn1 [Example 46, cyclopentyl(2-(4-((6-methoxypyridin-3-yl)oxy)piperidin-1-yl)-3-methyl-5,7-dihydro-6H-pyrrolo[3,4-b]pyridin-6-yl)methanone]	306
COc1ccc(OC2CCN(c3nc4c(cc3C)C(O)CC4)CC2)cn1 (single isomer, unassigned) [Example 71B]	1050
COc1ccc(OC2CCN(c3nc4c(cc3C)CN(C(=O)C3(C)COC3)C4)CC2)cn1 [Example 42, (2-(4-((6-methoxypyridin-3-yl)oxy)piperidin-1-yl)-3-methyl-5,7-dihydro-6H-pyrrolo[3,4-b]pyridin-6-yl)(3-methyloxetan-3-yl)methanone]	200
Cc1cn2c(=O)n(C)nc2nc1N1CCC(Oc2ccccc2)CC1 [Example 19, 2,6-dimethyl-7-(4-phenoxypiperidin-1-yl)-[1,2,4]triazolo[4,3-a]pyrimidin-3(2H)-one]	54
COc1ccc(OC2CCN(c3nc4c(cc3C)CN(C(=O)C3CC3(F)F)C4)CC2)cn1 (centres unmarked) [Example 57, (2,2-difluorocyclopropyl)(2-(4-((6-methoxypyridin-3-yl)oxy)piperidin-1-yl)-3-methyl-5,7-dihydro-6H-pyrrolo[3,4-b]pyridin-6-yl)methanone]	378
Cc1cn2c(=O)[nH]nc2nc1N1CCC(Oc2ccc3c(c2)C(=O)N(C2CC2)C3)CC1 [Example 6, 7-(4-((2-cyclopropyl-3-oxoisoindolin-5-yl)oxy)piperidin-l-yl)-6-methyl-[1,2,4]triazolo[4,3-a]pyrimidin-3(2H)-one]	168
Cc1cc2c(=O)[nH]n(C)c2nc1N1CCC(Oc2ccc3cn[nH]c3c2)CC1 [Example 27, 6-(4-((1H-indazol-6-yl)oxy)piperidin-1-yl)-1,5-dimethyl-1,2-dihydro-3H-pyrazolo[3,4-b]pyridin-3-one]	71
COc1ccc(OC2CCN(c3nc4c(cc3C)CN(C(=O)CN(C)C)C4)CC2)cn1 [Example 54, 2-(dimethylamino)-1-(2-(4-((6-methoxypyridin-3-yl)oxy)piperidin-1-yl)-3-methyl-5,7-dihydro-6H-pyrrolo[3,4-b]pyridin-6-yl)ethan-1-one]	238
COc1ccc(OC2CCN(c3nc4c(cc3C)C(=O)C(F)(F)C4)CC2)cn1 [Example 70, 6,6-difluoro-2-(4-((6-methoxypyridin-3-yl)oxy)piperidin-1-yl)-3-methyl-6,7-dihydro-5H-cyclopenta[b]pyridin-5-one]	63
COc1ccc(OC2CCN(c3nc4n[nH]c(=O)n4cc3C)CC2)cn1 [Example 4]	55
Cc1cn2c(=O)n(CCO)nc2nc1N1CCC(Oc2ccc3c(c2)COC3)CC1 [Example 13, 7-(4-((1,3-Dihydro-2-benzofuran-5-yl)oxy)piperidin-1-yl)-2-(2-hydroxyethyl)-6-methyl-[1,2,4]triazolo[4,3-a]pyrimidin-3(2H)-one]	47
COc1ccc(OC2CCN(c3nc4c(cc3C)C(=O)OC4)CC2)cn1 [Example 21, 2-(4-((6-Methoxypyridin-3-yl)oxy)piperidin-1-yl)-3-methylfuro[3,4-b]pyridin-5(7H)-one]	22
COc1ccc(OC2CCN(c3nc4c(cc3C)CN(C(=O)C3(C)CCCC3)C4)CC2)cn1 [Example 44, (2-(4-((6-methoxypyridin-3-yl)oxy)piperidin-1-yl)-3-methyl-5,7-dihydro-6H-pyrrolo[3,4-b]pyridin-6-yl)(1-methylcyclopentyl)methanone]	489
COc1ccc(OC2CCN(c3nc4c(cc3C)CNC4)CC2)cn1 [Example 34, 2-(4-((6-Methoxypyridin-3-yl)oxy)piperidin-1-yl)-3-methyl-6,7-dihydro-5H-pyrrolo[3,4-b]pyridine]	349
COc1ccc(OC2CCN(c3nc4c(cc3C)CN(C(=O)C3CC3)C4)CC2)cn1 [Example 41, cyclopropyl(2-(4-((6-methoxypyridin-3-yl)oxy)piperidin-1-yl)-3-methyl-5,7-dihydro-6H-pyrrolo[3,4-b]pyridin-6-yl)methanone]	153
Cc1cn2c(=O)[nH]nc2nc1N1CCC(Oc2cccc(C#N)c2)CC1 [Example 16, 3-((1-(6-methyl-3-oxo-2,3-dihydro-[1,2,4]triazolo[4,3-a]pyrimidin-7-yl)piperidin-4-yl)oxy)benzonitrile]	35
